In data set [1] the test system is C13* cisplatin-resistant ovarian cancer cells. In words: MTT cytotoxicity test, cisplatin-resistant C13*. The data set is classed as cell-based, human. As for the experimental part: The cytotoxic properties of the complexes were also evaluated in a pair of tumor cell lines suitably selected for their sensitivity and resistance to cisplatin (adenocarcinoma cells 2008/C13^*). Cross-resistance profiles were evaluated by means of the resistance factor (RF), defined as the ratio between IC50 values calculated for the resistant cells and those obtained with the sensitive ones (Table 2). The phenomenon of cisplatin resistance is multifactorial in nature.
(§1) Cisplatin was dissolved in 0.9% NaCl solution.
(§2) Human breast (MCF-7), colon (HCT-15), lung (A549) and pancreatic (BxPC3) carcinoma cell lines together with melanoma (A375) cells were obtained from American Type Culture Collection (ATCC, Rockville, MD). The human ovarian cancer cell line 2008 and its cisplatin resistant variant, C13*, were kindly provided by Prof. G. Marverti (Department of Biomedical Science of Modena University, Italy). Human cervical carcinoma (A431) cells were kindly provided by Prof. F. Zunino (Division of Experimental Oncology B, Istituto Nazionale dei Tumori, Milan, Italy). Cell lines were maintained in the logarithmic phase at 37 °C in a 5% carbon dioxide atmosphere using the following culture media containing 10% fetal calf serum (Euroclone, Milan, Italy), antibiotics (50 units/mL penicillin and 50 μg/mL streptomycin) and 2 mM L-glutamine: (i) RPMI-1640 medium (Euroclone) for 2008, C13*, MCF-7, HCT-15, A431 and BxPC3 cells, (ii) F-12 HAM’S (Sigma Chemical Co.) for A549 cells, iii) DMEM (Sigma Chemical Co.) for A375 cells.
(§3) The growth inhibitory effect toward tumor cells was evaluated by means of the MTT assay. Briefly, (3–8) × 10^3 cells/well, dependent upon the growth characteristics of the cell line, were seeded in 96-well microplates in growth medium (100 μL). After 24 h, the medium was removed and replaced with fresh medium containing the compound to be studied at the appropriate concentration. Triplicate cultures were established for each treatment. After 24, 48, or 72 h, each well was treated with 10 μL of a 5 mg/mL MTT saline solution and, after 5 h of incubation, 100 μL of a sodium dodecylsulfate (SDS) solution in 0.01 M HCl was added. After an overnight incubation, cell growth inhibition was detected by measuring the absorbance of each well at 570 nm using a Bio-Rad 680 microplate reader. The mean absorbance for each drug dose was expressed as a percentage of the control, untreated well absorbance and plotted vs drug concentration. The IC50 values, the drug concentrations that decrease the mean absorbance at 570 nm to 50% of that of untreated control wells, were calculated from the dose–response curves with the four-parameter logistic model (4PL). The final value is the mean ± S.D. of at least three independent experiments performed in triplicate.
In general terms: Tetrazolium assays rely on reduction of a dye to a coloured formazan, in cell work by metabolically active cells.

Data set [2] deals with A375 melanoma cells. Kind of data set: Cellular accumulation of Pt (GF-AAS). The data set is classed as cell-based, human. To be noted: A375, 1.5 and 3 μM, 6 and 24 h.
In data set [3] the test system is panel of human tumor cell lines (BxPC3, HCT-15, MCF-7, A431, A549, A375). In words: MTT cytotoxicity, mean over panel of human tumor cell lines. The data set is classed as cell-based. As to the method:
(§4) The cytotoxic activity of the complexes and of the uncoordinated ligands was evaluated by the MTT test on a panel of human tumor cell lines containing examples of pancreatic (BxPC3), colorectal (HCT-15), breast (MCF-7), cervical (A431), and lung (A549) cancers as well as of melanoma (A375). For comparison purposes, the cytotoxicity of cisplatin was evaluated under the same experimental conditions.
as §3

Data set [4] relates to HCT-15 colon carcinoma cells. Kind of data set: MTT cytotoxicity test, HCT-15. The data set is classed as cell-based, human. The settings on record: HCT-15, 72 h, MTT, ± S.D. As to the method:
as §4, §1, §2, §3

Data set [5] can be described thus: Log P octanol/water, shake flask method with ICP-MS. The settings on record: n-octanol / 0.9% NaCl water, Pt by ICP-MS. The data set is classed as physicochemical. As for the experimental part:
Partition coefficients (logP values) for octanol/water partition were determined in order to examine whether a correlation exists between lipophilicity and accumulation into cells. The log P values obtained (Table 3) give the trend in lipophilicity as mono indole acid complex < succinate complex < acetate complex < bis indole acid complex < benzoate complex for both the IAA and the IPA series.
The logP values of the Pt(IV) compounds were determined using the shake flask method. The respective Pt(IV) complex was dissolved in 0.9% NaCl (w/v) ultrapure water (presaturated with n-octanol). The solutions were sonicated and filtered to remove undissolved Pt(IV) compounds. The initial Pt concentrations were determined by ICP-MS. Subsequently, the Pt(IV) solutions were added to an equal volume of n-octanol (presaturated with 0.9% NaCl (w/v) ultrapure water). The heterogeneous mixtures were shaken vigorously for 30 min before centrifuging at 4000 rpm for 30 min to achieve phase separation. The final Pt concentration in the aqueous phase was determined again by ICP-MS. The logarithm of the ratio of Pt concentrations in the organic and aqueous phases was calculated to determine the logP values. All experiments were done in duplicate.

The subject of data set [6] is 2008 ovarian cancer cells. In words: MTT cytotoxicity test, cisplatin-sensitive 2008. The data set is classed as cell-based, human. To be noted: 2008 cisplatin-sensitive, 72 h, ± S.D. As for the experimental part:
The cytotoxic properties of the complexes were also evaluated in a pair of tumor cell lines suitably selected for their sensitivity and resistance to cisplatin (adenocarcinoma cells 2008/C13^*). Cross-resistance profiles were evaluated by means of the resistance factor (RF), defined as the ratio between IC50 values calculated for the resistant cells and those obtained with the sensitive ones (Table 2). The phenomenon of cisplatin resistance is multifactorial in nature. Nevertheless, the main molecular mechanisms involved in drug resistance in C13* cancer cells have largely been identified. Indeed, in this cell line resistance is correlated to high cellular glutathione and thioredoxin reductase levels, reduced cellular drug uptake and enhanced repair of DNA damage. […] The RF values calculated for all derivatives were six- to nine-fold lower than that of cisplatin, clearly indicating the absence of cross-resistance.
as §1
Triplicate cultures were established for each treatment.

In data set [7] the test system is BxPC3 pancreatic carcinoma cells. Kind of data set: MTT cytotoxicity test, BxPC3. The data set is classed as cell-based, human. To be noted: BxPC3, 72 h, MTT, ± S.D. As for the experimental part:
as §4, §1, §2, §3

For data set [8], the system named is A431 cervical carcinoma cells. Kind of data set: MTT cytotoxicity test, A431. The data set is classed as cell-based, human. The settings on record: ± S.D. As to the method: as §4, §1, §2, §3
For data set [9], the system named is MCF-7 breast carcinoma cells. Kind of data set: MTT cytotoxicity test, MCF-7. The data set is classed as cell-based, human. To be noted: ± S.D. As to the method:
as §4, §1, §2, §3

Data set [10] can be described thus: Stability in physiological saline by mass spectrometry. The data set is classed as physicochemical. To be noted: 0.9% NaCl. As to the method:
Ten indole carboxylic acid Pt(IV) complexes with IAA (indole-3-acetic acid, 1A–5A) and IPA (indole-3-propionic acid, 1P–5P) were synthesized and the structures are depicted in Fig. 3. The monocarboxylato complexes 1A and 1P were prepared by reacting oxoplatin, c,c,t-[Pt(NH3)2Cl2(OH)2], with 0.8 eq. of the activated NHS-ester of the corresponding indole carboxylic acid. The dicarboxylato complexes with two indole acids in axial position (2A and 2P) were obtained using an excess of the NHS-ester activated acid (20 eq.), since the second hydroxo group of oxoplatin is much less reactive than the first one. The unsymmetrically substituted complexes (3A–5A and 3P–5P) were prepared by reaction of the monocarboxylate complexes 1A and 1P with the corresponding anhydrides. We chose three different anhydrides (benzoic, acetic and succinic anhydride) to vary the lipophilicity of the resulting Pt(IV) complexes. All the synthesized Pt(IV) complexes were characterized using elemental analysis, ESI-MS, FT-IR, ^1H and ^195Pt NMR spectroscopy. The purity of the complexes has been assessed through elemental analysis and–where solubility was not an issue–by high performance liquid chromatography (HPLC). The dicarboxylato complexes are poorly soluble in organic solvents. The proton NMR spectra of the complexes in DMSO-d6 show the typical signal of the NH3 protons which is a multiplet at around 6 ppm for the monocarboxylato complexes 1P and 1A (typical ^1JNH and ^2JPtH values around 50 Hz) while it is a broad signal around 6.5 ppm for the bis-substituted complexes (2–5A and 2–5P, Supplementary Information)[44]. The mass spectra of the complexes show a peak in the negative mode with the typical platinum isotope pattern corresponding to M − H^− or M + Cl^−. Stability studies on representative examples of the complexes (1A, 1P, 3A and 3P) via mass spectrometry confirm that the complexes are stable in physiological saline (0.9% NaCl) for at least 48 h (Supplementary Information).
Complexes 1A, 1P, 3A and 3P where dissolved in a minimum amount of DMF and diluted 1:20 with physiological saline (0.9% NaCl). Mass spectra were recorded at t = 0 and after 48 hours.

Data set [11] concerns A375 melanoma cells. In words: MTT cytotoxicity test, A375. The data set is classed as cell-based, human. The settings on record: ± S.D. As to the method:
as §4, §1, §2, §3

Data set [12] deals with A549 lung carcinoma cells. Kind of data set: cells. To be noted: A549, 72 h. As to the method: as §4, §1, §2, §3
The subject of data set [13] is A375 cells. Kind of data set: ROS production (CM-H2DCFDA probe). The data set is classed as cell-based, human. To be noted: A375, 12.5 μM, compared with antimycin positive control. As for the experimental part: ROS are products of normal cell metabolism but their levels can be increased upon exposure to toxic agents or interference with the cellular redox network. […] Consequently, cellular ROS levels upon treatment with equal doses (12.5 μM) of the different platinum complexes were monitored in A375 cancer cells by using the peroxide-sensitive fluorescent probe CM-H2DCFDA (5-(and-6)-chloromethyl-2′,7′-dichlorodihydrofluorescein diacetate, acetyl ester). Antimycin, a classical inhibitor of the mitochondrial respiratory chain at the level of complex III, was used as a positive control.
Figure 8 ROS production in A375 cells. Cells were preincubated in PBS/10 mM glucose medium for 20 min at 37 °C in the presence of 10 μM CM-DCFDA and then treated with equimolar doses (12.5 μM) of indole propionic acid Pt(IV) derivatives (panel A) or indole acetic acid Pt(IV) derivatives (panel B). The fluorescence of DCF was measured.
The production of ROS was measured in A375 cells (10^4 per well) grown for 24 h in 96-well plates in DMEM medium without phenol red (Sigma Chemical Co.). Cells were then washed with PBS and loaded with 10 μM 5-(and-6)-chloromethyl-2′,7′-dichlorodihydrofluorescein diacetate, acetyl ester (CM–H2DCFDA) (Molecular Probes-Invitrogen) for 25 min in the dark. Afterwards, cells were washed with PBS and incubated with increasing concentrations of the tested complexes. The fluorescence increase was estimated with a plate reader (Fluoroskan Ascent FL, Labsystem, Finland) at 485 (excitation) and 527 nm (emission). Antimycin (3 μM, Sigma Chemical Co.), a potent inhibitor of Complex III in the electron transport chain, was used as positive control.

Here are results for 2 compounds from paper PMC4941645, “Oxidative Stress Induced by Pt(IV) Pro-drugs Based on the Cisplatin Scaffold and Indole Carboxylic Acids in Axial Position” (Scientific Reports, 2016).

What is called IC50 is the concentration at which inhibition is half-maximal. Low readings indicate greater potency, high ones weaker potency. In the case of `[NH2][Pt]([NH2])([Cl])([Cl])([O]C(=O)CCc1c[nH]c2ccccc12)[O]C(=O)c1ccccc1` [Complex 3P], the 50% inhibitory concentration (IC50) was found to be 1470 ± 680 nM in data set [1] (C13* cisplatin-resistant, 72 h, MTT, ± S.D.); 2600 nM in [3] (mean over the six cell lines of Table 1, 72 h); 5940 ± 630 nM in [4]; 4790 ± 690 nM in [6]; 2920 ± 1130 nM in data set [7]; 2000 ± 320 nM in data set [8] (A431, 72 h). In addition, the 50% inhibitory concentration (IC50) turned out to be 2280 ± 460 nM in [9] (MCF-7, 72 h); 1510 ± 1250 nM in data set [11] (A375, 72 h); 960 ± 60 nM in data set [12] (MTT, ± S.D.). Moreover, in [1] (IC50 resistant (C13*) / parent line (2008)), the “RF (resistance factor)” value amounted to 0.3. Moreover, the “cellular platinum accumulation (in words)” value in data set [2] is reported as “internalized most efficiently”. Further, in data set [5], the “Log P (octanol/water)” value is on record as −0.028 ± 0.07. Also, the “stable in physiological saline” value in data set [10] was “at least 48 h”.
For the compound `O=C(O)CCc1c[nH]c2ccccc12` [IPA, indole-3-propionic acid, reference compound], in data set [3] (free ligands), the “cytotoxic effect (in words)” value is on record as “did not elicit any significant cytotoxic effect”. Moreover, the IC50 is above 50000 nM in data set [4] (Homo sapiens); above 50000 nM in data set [7] (Homo sapiens, BXPC-3); above 50000 nM in data set [8] (Homo sapiens, A-431, A431, 72 h); above 50000 nM in data set [9] (Homo sapiens, MCF7, MCF-7, 72 h); above 50000 nM in [11] (Homo sapiens, A-375, A375, 72 h); above 50000 nM in data set [12] (Homo sapiens). For the same compound, in data set [13], the “ROS production (in words)” value is recorded as “no effect on cellular basal ROS levels”.
